Read-outs that look alike come from different tables or passages of the source. Each block holds one compound with its values, some of them ahead of it.
Tests used:
[1] = tested on: edema of the rat ear induced by croton oil; assay: Local anti-inflammatory action, edema of the rat ear induced by croton oil (Le Douarec); format: in vivo; conditions: topical
Method: This was determined by the technique of edema of the rat ear induced by croton oil according to the method of Le Douarec. The irritant mixture was prepared from two solutions: solution A which contained 10 ml of pyridine, 2.5 ml of water and 12.5 ml of ethyl acetate and in which the test sample was dissolved; solution B, which contained 1 ml of croton oil and 24 ml of ethyl acetate. The two solutions A and B were mixed together before use. Edema was induced by swabbing the ear with a cotton wad moistened with the irritant mixture (about 1 ml of mixture per rat).

[2] = tested on: male mice of the Swiss EOPS strain; assay: Analgesic activity, hot plate test (thermal stimulus); format: in vivo, mouse; conditions: 56° C., reaction time ≥150% of reference time
Method: Experiments were performed on male mice of the Swiss EOPS strain and two stress-producing stimuli were used: the P.B.Q. test (chemical stimulus) and the hot plate test (thermal stimulus). […] The doses are expressed in mg/kg of animal weight.

[3] = tested on: male mice of the Swiss EOPS strain; assay: Analgesic activity, P.B.Q. test (chemical stimulus); format: in vivo, mouse; conditions: 10 minutes before P.B.Q., range in parentheses
Method: Experiments were performed on male mice of the Swiss EOPS strain and two stress-producing stimuli were used: the P.B.Q. test (chemical stimulus) and the hot plate test (thermal stimulus).
An aqueous alcoholic solution of 0.02% phenyl p-benzoquinone (P.B.Q.) was administered i.p. to the animals; at the end of 5 minutes this induced abdominal contractions and extension of the mice's hind paws.
The doses are expressed in mg/kg of animal weight.

capillary permeability = format: in vivo, rat
Method: The capillary permeability was determined by the method of […]., and […]., Arch. Inter. Physiol. […] The products were administered i.p. for capillary permeability, the ED 50 as well as the regression analysis equation expressing the effect on the capillary permeability as a function of the dose expressed in mg/kg.

capillary resistance = assay: Capillaroprotector effects, capillary resistance; format: in vivo, rat
Method: The capillary resistance was determined by a variant of the method of Charlier R., Hosslet A., and Colot M., Arch. Inter. Physiol. Biochem., 71, 1-45 (1963) in Sprague Dowley EOPS rats. The products were administered i.p.

Edema from Carrageenan = assay: Anti-inflammatory activity, edema test with carrageenan; format: in vivo, rat; conditions: i.p.
Method: This effect was determined in the edema test with carrageenan in male EOPS Wistar rats. A volume of 0.1 ml of a suspension of 0.5% carrageenan in physiologic serum was injected into the muscle bundle of the metatarsal region of the animal's hind paws. The test sample was administered i.p. in neutralized physiologic solution simultaneously with the carrageenan. The edema was measured by plethysmometry 2, 3 and 6 hours after the administration of carrageenan.

EOPS mouse = conditions: Mice
Method: Acute toxicity was determined in the EOPS mouse, the standard Wistar rat and the EOPS Wistar rat for several methods of administration. The products were administered orally in suspension in gum julep, and i.p. and i.v. in a physiological solution neutralized with NaOH.
In all cases the doses are expressed in mg per kg of animal weight.

[4] = tested on: male standard Wistar rats; assay: Intoxication by slow IV perfusion in the anesthetized rat
Method: The carotid pressure, the heart rate, the respiration and the electrocardiogram were recorded on lead DII. […] The products were administered in solution in physiological serum. The solutions were neutralized with bicarbonate.

EOPS Wistar rat = assay: Acute toxicity in the EOPS Wistar rat (Litchfield and Wilcoxon); format: in vivo; conditions: EOPS Wistar rats, IP
constraint ulcer = assay: Anti-ulcer activity, constraint ulcer test (Bonfils); format: in vivo, rat; conditions: 50 mg/kg PO
Method: The anti-ulcer activity was determined in female EOPS Wistar rats in the constraint ulcer test by the technique of Bonfils.
After 24 hours without food the rats, lightly anesthetized with ether, were immobilized in pliable metal-lattice corselets. The paws were tied together in pairs. The rats were suspended in their cages so that they could not touch any point of support. Just before anesthesia the test samples were administered PO in suspension in gum julep in a volume of 0.5 cc/100g. The animals were left constrained for 24 hours and then killed with ether. The stomachs were removed and cut along the greatest curvature. They were stretched out on cork slabs covered with glazed paper to facilitate examination and photographing. A scale of 0 to 4 was used for the number and dimension of ulcerations (0 for no ulceration, 4 for more than 4 ulcers or a perforation).

Compound: CC(=O)Oc1ccccc1C(=O)O [Aspirin]
- % of Activity (inhibition of the edema) ([1]; 25 mg/ml of mixture): 27%
- % of Activity (inhibition of the edema) ([1]; 50 mg/ml of mixture): 65%

Compound: CCCCC1C(=O)N(c2ccccc2)N(c2ccccc2)C1=O [Phenylbutazone]
- ED50 ([2]; Mus musculus, ip, read-out: Hot Plate Test AD 50): 125 mg/kg
- ED50 ([3]; Mus musculus, ip, read-out: P.B.Q. Test ED 50): 14 mg/kg

- Capillary permeability regression equation, constant term (capillary permeability; rat, not told): 159
- Capillary permeability regression equation, slope (coefficient of X) (capillary permeability; rat, not told): -6.50
Compound: Sodium escinate
- Capillary Permeability ED 50 (capillary permeability; i.p., standard Wistar rat, range in parentheses): 12 (10-15) mg/kg
- Capillary Resistance activity (capillary resistance; dose 5 mg/kg i.p.): 26 ± 15 ucmHg/hour
- Capillary Resistance, % of animals with activity ≥25 (capillary resistance; dose 5 mg/kg i.p.): 60%
- Capillary Resistance activity (capillary resistance; dose 10 mg/kg i.p.): 78 ± 24 ucmHg/hour
- Capillary Resistance, % of animals with activity ≥25 (capillary resistance; dose 10 mg/kg i.p.): 100%

Compound: β-aescine
- Hot Plate Test AD 50 ([2]; i.p.): 4.5 mg/kg
- P.B.Q. Test ED 50 ([3]; i.p.): 2.7 (1.7-7.5) mg/kg
- Edema from Carrageenan ED 50 (Edema from Carrageenan; 2 hours after carrageenan): 6.5 mg/kg
- Edema from Carrageenan ED 50 (Edema from Carrageenan; 3 hours after carrageenan): 8.5 mg/kg
- Edema from Carrageenan ED 50 (Edema from Carrageenan; 6 hours after carrageenan): 7.5 mg/kg
- MTD (maximum tolerated dose) (EOPS mouse; IP): 2.5 mg per kg
- MTD (maximum tolerated dose) (EOPS mouse; IV): < 1.25 mg per kg
- arterial pressure ([4]; 1 mg/kg/min): a slight hypotension was observed at the beginning of the perfusion; the arterial pressure next increased, then abruptly dropped to end rapidly in death
- arterial pressure and heart and respiratory rates ([4]; up to 0.1 mg/kg/min): tended to increase
- MTD (maximum tolerated dose) (EOPS Wistar rat): < 6.25 mg per kg
- % of Anti-Ulcer Activity (constraint ulcer): 13%

From patent US4146615A, “Chrysanthellum plant extract” (Laboratoires Sarget, priority 1977, dated 1979)
